Measured values reported in ChEMBL document CHEMBL4004864, “Synthetic analogs of rhamnolipids modulate structured biofilms formed by rhamnolipid-nonproducing mutant of Pseudomonas aeruginosa” (Bioorg Med Chem, 2017).
Calls of active or inactive are those of the source. No cut-off for these calls is given here.

Legend:
Pseudomonas aeruginosa [1] = experiment: Inhibition of biofilm formation in eGFP-fused Pseudomonas aeruginosa PW6886 harboring rhlA-E08::ISphoA/hah mutant at 340 uM after 48 hrs under shaking condition by confocal laser scanning microscopy; type: functional
Pseudomonas aeruginosa [2] = experiment: Induction of biofilm formation in eGFP-fused Pseudomonas aeruginosa PW6886 harboring rhlA-E08::ISphoA/hah mutant at 20 uM after 48 hrs under shaking condition by confocal laser scanning microscopy; type: functional
Pseudomonas aeruginosa [3] = experiment: Inhibition of biofilm formation in eGFP-fused Pseudomonas aeruginosa PW6886 harboring rhlA-E08::ISphoA/hah mutant at 340 uM by COMSTAT based quantification relative to control; type: functional
Pseudomonas aeruginosa [4] = experiment: Inhibition of biofilm formation in Pseudomonas aeruginosa PW6886 harboring rhlA-E08::ISphoA/hah mutant at 340 uM under non-shaking condition after 24 hrs by crystal-violet staining based assay; type: functional
Pseudomonas aeruginosa [5] = experiment: Inhibition of biofilm formation in eGFP-fused Pseudomonas aeruginosa PW6886 harboring rhlA-E08::ISphoA/hah mutant at 340 uM after 24 hrs under shaking condition by confocal laser scanning microscopy; type: functional
Pseudomonas aeruginosa [6] = experiment: Induction of biofilm formation in Pseudomonas aeruginosa PW6886 harboring rhlA-E08::ISphoA/hah mutant expressing EGFP at 40 uM after 24 hrs under non-shaking condition by confocal laser scanning microscopy; type: functional
Pseudomonas aeruginosa [7] = experiment: Induction of biofilm formation in eGFP-fused Pseudomonas aeruginosa PW6886 harboring rhlA-E08::ISphoA/hah mutant at 20 to 40 uM by COMSTAT based quantification relative to control; type: functional
Pseudomonas aeruginosa [8] = experiment: Induction of biofilm formation in Pseudomonas aeruginosa PW6886 harboring rhlA-E08::ISphoA/hah mutant at 20 to 170 uM after 24 hrs under non-shaking condition by crystal-violet staining based assay; type: functional
Pseudomonas aeruginosa [9] = experiment: (§1) Antibiofilm activity against Pseudomonas aeruginosa PW6886 harboring rhlA-E08::ISphoA/hah mutant preformed biofilms assessed as reduction in biofilm bacterial count at 340 uM preincubated for 24 hrs under non-shaking condition followed by second incubation for 1 hr after compound washout and subsequent compound addition and measured after 1 hr incubation under non-shaking condition by crystal-violet staining based assay; type: functional
Pseudomonas aeruginosa [10] = experiment: as §1, with “20 to 40” for “340”; type: functional
Pseudomonas aeruginosa [11] = experiment: Induction of structured biofilm formation in eGFP-fused Pseudomonas aeruginosa PW6886 harboring rhlA-E08::ISphoA/hah mutant at 20 uM after 24 hrs under shaking condition by confocal laser scanning microscopy; type: functional
Pseudomonas aeruginosa [12] = experiment: Bactericidal activity against Pseudomonas aeruginosa PW6886 harboring rhlA-E08::ISphoA/hah mutant at 20 to 340 uM under shaking condition
Pseudomonas aeruginosa [13] = experiment: Induction of biofilm formation in Pseudomonas aeruginosa PW6886 harboring rhlA-E08::ISphoA/hah mutant expressing EGFP at 20 to 340 uM after 48 hrs under shaking condition by confocal laser scanning microscopy; type: functional
Pseudomonas aeruginosa [14] = experiment: as §1, with “count at 20 to 340 uM” for “count at 340 uM”; type: functional
Pseudomonas aeruginosa [15] = experiment: Inhibition of biofilm formation in Pseudomonas aeruginosa PW6886 harboring rhlA-E08::ISphoA/hah mutant expressing EGFP at 20 to 340 uM after 48 hrs under shaking condition by confocal laser scanning microscopy; type: functional
Pseudomonas aeruginosa [16] = experiment: Effect on biofilm formation in Pseudomonas aeruginosa PW6886 harboring rhlA-E08::ISphoA/hah mutant at 10 to 340 uM after 24 hrs under non-shaking condition by crystal-violet staining based assay; type: functional
Pseudomonas aeruginosa [17] = experiment: Induction of swarming motility of Pseudomonas aeruginosa PW6886 harboring rhlA-E08::ISphoA/hah mutant at 5 to 100 uM after 24 hrs; type: functional
Pseudomonas aeruginosa [18] = experiment: Induction of swarming motility of wild-type Pseudomonas aeruginosa PAO1 at 5 to 100 uM after 24 hrs; type: functional
Pseudomonas aeruginosa [19] = experiment: Induction of biofilm formation in Pseudomonas aeruginosa PW6886 harboring rhlA-E08::ISphoA/hah mutant expressing EGFP assessed as reduction in exopolymers covering the bottom of well at 20 to 85 uM after 24 hrs under shaking condition by confocal laser scanning microscopy; type: functional
Pseudomonas aeruginosa [20] = experiment: Induction of swarming motility of wild-type Pseudomonas aeruginosa PAO1 at 50 uM after 24 hrs; type: functional
Pseudomonas aeruginosa [21] = experiment: Induction of tendril formation in Pseudomonas aeruginosa PW6886 harboring rhlA-E08::ISphoA/hah mutant at 5 to 100 uM after 24 hrs; type: functional
Pseudomonas aeruginosa [22] = experiment: Induction of tendril formation in Pseudomonas aeruginosa PAO1 at > 85 uM after 24 hrs; type: functional

| SMILES | inhibition (Pseudomonas aeruginosa [1]) | Activity (Pseudomonas aeruginosa [2]) | inhibition at 340 µM (Pseudomonas aeruginosa [3]) [%] | inhibition (Pseudomonas aeruginosa [4]) | inhibition (Pseudomonas aeruginosa [5]) | Activity (Pseudomonas aeruginosa [6]) | Activity (Pseudomonas aeruginosa [7]) | Activity (Pseudomonas aeruginosa [8]) | Activity (Pseudomonas aeruginosa [9]) | Activity (Pseudomonas aeruginosa [10]) | Activity (Pseudomonas aeruginosa [11]) | Activity (Pseudomonas aeruginosa [12]) | Activity (Pseudomonas aeruginosa [13]) | Activity (Pseudomonas aeruginosa [14]) | inhibition (Pseudomonas aeruginosa [15]) | Activity (Pseudomonas aeruginosa [16]) | Activity (Pseudomonas aeruginosa [17]) | Activity (Pseudomonas aeruginosa [18]) | also measured |
| --- | --- | --- | --- | --- | --- | --- | --- | --- | --- | --- | --- | --- | --- | --- | --- | --- | --- | --- | --- |
| CC(C)CCCC(C)CCCC(C)CCO[C@@H]1O[C@H](CO)[C@@H](O[C@@H]2O[C@H](CO)[C@@H](O)[C@H](O)[C@H]2O)[C@H](O)[C@H]1O (some centres not stated) | Active | Active | 80 | Active | Active | Active | 10 - 60% | Active | Active | inactive | Active | – | – | – | – | – | – | – | – |
| CCCCCCOCCCCCO[C@@H]1O[C@H](CO)[C@@H](O[C@H]2O[C@H](CO)[C@@H](O)[C@H](O)[C@H]2O)[C@H](O)[C@H]1O | – | – | – | – | – | – | – | – | – | – | – | Non-Toxic | inactive | inactive | inactive | inactive | inactive | inactive | – |
| CCCOCCCCCCCCO[C@@H]1O[C@H](CO)[C@@H](O[C@H]2O[C@H](CO)[C@@H](O)[C@H](O)[C@H]2O)[C@H](O)[C@H]1O | – | – | – | – | – | – | – | – | – | – | – | – | inactive | inactive | inactive | inactive | inactive | inactive | – |
| O=C(c1ccccc1)c1ccc(COCCCCCCCCCCO[C@@H]2O[C@H](CO)[C@@H](O[C@H]3O[C@H](CO)[C@@H](O)[C@H](O)[C@H]3O)[C@H](O)[C@H]2O)cc1 | Active | Active | 80 | – | Active | Active | 10 - 60% | Active | Active | inactive | Active | Non-Toxic | – | – | – | – | – | – | – |
| CC(C)CCCC(C)CCCC(C)CCO[C@@H]1O[C@H](CO)[C@@H](O[C@H]2O[C@H](CO)[C@@H](O)[C@H](O)[C@H]2O)[C@H](O)[C@H]1O (some centres not stated) | Active | Active | 80 | Active | Active | Active | 10 - 60% | Active | Active | inactive | Active | Non-Toxic | – | – | – | – | – | – | Activity (Pseudomonas aeruginosa [19]): Active |
| CCCCCCCCCCCCO[C@@H]1O[C@H](CO)[C@@H](O[C@H]2O[C@H](CO)[C@@H](O)[C@H](O)[C@H]2O)[C@H](O)[C@H]1O | inactive | inactive | 80 | – | Active | – | 10 - 60% | Active | Active | inactive | Active | Non-Toxic | – | – | – | – | Active | – | Activity (Pseudomonas aeruginosa [20]): Active; Activity (Pseudomonas aeruginosa [21]): Active; Activity (Pseudomonas aeruginosa [22]): Active |
